The target of one data set is DT-Diaphorase (DTD) (Homo sapiens, UniProt P15559). Nature of the data set: Suitability as substrate for DTD (activation by DTD). The data set is classed as biochemical. An excerpt: The results of these tests are set out in Table 2.
Another data set concerns solid tumours. In words: Phase I clinical trial: safety, tolerability and anti-tumour response. The data set is classed as in vivo, human. The text has this: The RH1 trial involved administering RH1 to patients having histologically proven solid tumours that were refractory to conventional treatment or for whom no conventional treatment exists. The WHO performance status of these patients was 0 or 1. WHO performance status is an indicator of a patients overall level of well being/activity. A WHO performance status of 0 means that the patient is fully active, able to carry out all normal activity, without restriction. A WHO performance status of 1 means the patient is restricted in physically strenuous activity but ambulatory and able to carry out work of a light or sedentary nature, e.g. light house work, office work.
(§1) RH1 was administered intravenously on a daily schedule for 5 day periods following a dose escalation scheme. Treatment was repeated on a 21 day cycle. A dose escalation scheme was used to try to establish dose-limiting toxicity. Predicted toxicity includes myelosuppression, emesis, renal toxicity and local injection site irritation. Safety and tolerability were monitored each cycle. Anti-tumour response was assessed after each 2 cycles using RECIST criteria.

Another data set has as its system skin biopsy lesions. Nature of the data set: Comet-X assay on skin biopsy lesions. The data set is classed as in vivo, human. The settings on record: highest cohort treated.
Data set [1] concerns DNA of peripheral blood lymphocytes. In words: Comet-X assay of patients' peripheral blood lymphocytes in the Phase I trial. It counts as in vivo, human. The text has this: A modified version of the single cell gel electrophoresis comet assay, the Comet-X, specifically detects DNA cross-linking in individual cells and has been validated for clinical trial use. 9 patients have been treated with RH-1 and PMBCs (peripheral blood lymphocytes) isolated from pre-infusion and post infusion time points on both day 1 and day 5 of treatment were subjected to Comet-X assay (FIG. 2). From the data obtained, accumulative DNA damage appears to be occurring in PBMC's over the 5 day infusion period leading to significant DNA cross linking (30%) by day 5 (FIG. 3). Other PD (pharmacodynamic) assays used in the trial include assessment of DTD levels and activity and RFLP genotyping of the NQO1 gene.
(§2) The Comet assay is a sensitive method of detecting DNA breaks in single cells. The cells are embedded in agarose and spread onto microscope slides. After lysis and de-proteinisation, the cells are subjected to alkaline unwinding at high pH (12.5). The DNA becomes relaxed and unwinds at points where DNA single and double strand breaks occur. The cells are then finally subjected to micro-electrophoresis during which relaxed and damaged DNA migrates away from the nucleus resulting in the classic comet shape when visualised under microscopy. This migration of DNA is retarded when the DNA has been subjected to interstrand cross-linking by drugs such as RH1. In the comet-X assay used in this trial, control non-drug treated lymphocytes from the patient's pre-infusion are subjected to gamma radiation to introduce a fixed number of DNA breaks into each cell. This treatment results in a fixed amount of migration under electrophoresis quantified as the percentage (%) of DNA in the tail of the comet image. Patients lymphocytes exposed to RH1 on infusion are collected and irradiated with the same dose of gamma radiation as the control pre-infusion lymphocytes. It was expected that interstrand cross-links produced by RH1 will retard the migration of DNA during electrophoresis resulting in less DNA in the tail of the comet compared to the irradiation only controls. Results are expressed as % DNA cross linked.
To date 12 patients have been treated with RH1 and peripheral blood lymphocytes isolated from pre-infusion and post infusion time points on both day 1 and day 5 of treatment. These lymphocytes have been subjected to the Comet-X assay described above and the amount of DNA present in the tail of the comets following irradiation has been measured. Internal QC samples have been run each time a patients samples have been processed. The data has been pooled into exposure times (short 5-10 minutes, medium 40-120 minutes and long 4-24 hrs exposure) and dose cohorts, (1) 40-135 μg/m^2, (2) 200-326 μg/m^2, (3) 410-810 μg/m^2, and (4) […] ranges for ease of analysis.

Data set [2] deals with DNA of human lymphocytes (PBLs). Nature of the data set: RH1 drug dosimetry in human lymphocytes in vitro (Comet-X assay). It counts as cell-based. The method, then: Optimal DNA cross-linking is shown in the range 50 to 100 nM RH1.
as §2, with “It was expected that interstrand cross-links produced by RH1 will retard the migration of DNA during electrophoresis resulting in less DNA in the tail of the comet compared to the irradiation only controls.” left out, “linked. […]” for “linked.”

A short description of another data set: clinical. The settings on record: in vivo; for half-life: iv. Details: species or system human. How it is done:
RH-1 is activated by NAD(P)H: Quinone acceptor oxidoreductase (NQO1; DT-diaphorase, DTD). DTD is often over-expressed in lung, colon, liver and breast tumours. RH-1 is undergoing Phase I trial at the Christie Hospital, UK. The pharmacokinetic (PK) requirements of this trial required assays that detect nM levels of RH-1 in serum using LC-MS. The extraction and quantitation of RH-1 from human plasma was validated and a limit of detection of 1 ng/ml reached.
as §1
Patients lymphocytes exposed to RH1 on infusion were analysed using the comet-X assay, which detects DNA interstrand cross-links.

Data set [3] in a line: physchem. As to conditions: buffer, pH 7.
The nature of data set [4]: physchem. The settings on record: 25 °C, aqueous buffer.

“Also recorded” adds a separate entry of the source. Read-outs that look alike come from different tables or passages of the source.

Sequence of DT-Diaphorase (DTD) (P15559 whole entry): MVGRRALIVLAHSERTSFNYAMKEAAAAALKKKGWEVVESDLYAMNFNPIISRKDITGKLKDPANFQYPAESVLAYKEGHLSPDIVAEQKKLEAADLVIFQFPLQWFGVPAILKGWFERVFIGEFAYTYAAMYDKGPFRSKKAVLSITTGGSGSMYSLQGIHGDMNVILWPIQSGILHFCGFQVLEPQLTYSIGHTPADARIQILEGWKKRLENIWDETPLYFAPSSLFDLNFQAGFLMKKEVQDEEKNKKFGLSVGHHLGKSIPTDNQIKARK

Consider `CCOC(=O)NC1=C(N2CC2)C(=O)C(NC(=O)OCC)=C(N2CC2)C1=O` [AZQ, 3,6-diaziridinyl-2,5-bis-(carboethoxyamino)1,4-benzoquinone], for which the DTD substrate result on DT-Diaphorase (DTD) is reported as “Moderate”.
With `O=C1C(NCCO)=C(N2CC2)C(=O)C(NCCO)=C1N1CC1` [BZQ, 3,6-diaziridinyl-2,5-bis-2(-hydroxyethylamino)1,4-benzoquinone], the DTD substrate result at DT-Diaphorase (DTD) is “Poor”.
For `Cn1c(/C=C/CO)c(CO)c2c1C(=O)C=C(N1CC1)C2=O` [E09, 3-HYDROXYMETHYL-5-AZIRIDINYL-1METHYL-2-[1H-INDOLE-4,7-DIONE]-PROPANOL], the DTD substrate entry at DT-Diaphorase (DTD) is given as “Moderate”.
For `CO[C@@]12[C@H](COC(N)=O)C3=C(C(=O)C(C)=C(N)C3=O)N1C[C@@H]1N[C@@H]12` [Mitomycin C], the DTD substrate result on DT-Diaphorase (DTD) is given as “Poor”; on DT-Diaphorase (DTD) (listed as mitomycin C), “relatively poor substrate”.
Consider `CC1=C(N2CC2)C(=O)C(CO)=C(N2CC2)C1=O` [RH1, 2,5-diaziridinyl-3-hydroxymethyl-6-methyl-1,4-benzoquinone], for which the “toxicity, patient 5” value with solid tumours (patient 005, 265 μg/m^2/d) is on record as “grade I thrombocytopenia; also recorded: grade I renal impairment”. In addition, in the data set with solid tumours (patient 007, dose level 7), the “toxicity, patient 007” value is on record as “evidence of toxicity”. Also, in the data set with solid tumours (patients 001-004, 40-200 μg/m^2/d i.v. daily x5), the “treatment-related toxicity, first 4 patients” value is recorded as “no treatment-related toxicity”. For the same compound, the “Comet-X result on skin biopsy lesions” value in the data set with skin biopsy lesions is listed as “demonstrate efficacy”. For the same compound, the “cross-linking on day 5 compared with day 1” value in data set [1] (all patients, statistical analysis) was “significantly more cross-linking”. The “DNA cross linking in PBMCs” value in data set [1] (by day 5 of the 5 day infusion period) is on record as 30%. The “% DNA in the tail (distribution peak)” value in data set [1] (day 1, similar to irradiated control) is given as 70-80%; in data set [1] (day 5, PBLC population), 60-70%. The “degree of cross-linking in PBMCs, highest cohort” value in data set [1] (highest cohort (1080-1095 mg/m^2), day 5) is listed as 15-20%. Also, in data set [1] (medium dose cohort, day 1 (particularly 4 hr, 24 hr samples) and throughout day 5), the “DNA cross-linking, medium dose cohort” value is listed as “evidence of DNA cross-linking”. Moreover, in data set [1] (pooled data, low dose cohort, day 1 or day 5), the “DNA cross-linking, low dose cohort” value is “no DNA cross-linking”. Moreover, the “dose response of DNA cross-linking” value in data set [2] (PBLs treated 5-100 nM RH1, 2 hours, 37° C., concentration increased to 50 nM) is on record as “increase in DNA cross-linking”. Also, the “RH1 concentration range of optimal DNA cross-linking” value in data set [2] (human lymphocytes, Comet-X, FIG. 1) lay in the range of 50 to 100 nM. Besides, the Clearance saturability result in “clinical” (human) was “did not appear to be saturable”. For the same compound, the half-life in the data set “clinical” (human, half-life (clearance from the blood)) was approximately 6 min; in “clinical” (human, plasma half-life), 2 to 12 min; in “physchem [3]” it was more than 2880 min. For the same compound, the “relationship between drug dose and area under the curve” value in “clinical” is given as “linear relationship”. In addition, the DTD substrate result on DT-Diaphorase (DTD) is recorded as “excellent substrate”; at DT-Diaphorase (DTD) (listed as RH-1), “good substrate”. Also, the solubility in the data set “physchem [4]” is more than 500 µg/mL.

For the origin of these results see patent publication US20070203109A1, “Compounds And Compositions For Treatment Of Cancer” (priority 2004, published 2007).
